Results from ChEMBL document CHEMBL1201862, “PubChem BioAssay data set” (2004).
The source made the active and inactive calls.

Columns and labels:
[1] = target: T1, Cytochrome P450 1A2 (Homo sapiens, UniProt P05177);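 also: PubChem cytochrome P450 panel assay, CYP1A2 panel member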
T1 sequence (P05177 whole entry): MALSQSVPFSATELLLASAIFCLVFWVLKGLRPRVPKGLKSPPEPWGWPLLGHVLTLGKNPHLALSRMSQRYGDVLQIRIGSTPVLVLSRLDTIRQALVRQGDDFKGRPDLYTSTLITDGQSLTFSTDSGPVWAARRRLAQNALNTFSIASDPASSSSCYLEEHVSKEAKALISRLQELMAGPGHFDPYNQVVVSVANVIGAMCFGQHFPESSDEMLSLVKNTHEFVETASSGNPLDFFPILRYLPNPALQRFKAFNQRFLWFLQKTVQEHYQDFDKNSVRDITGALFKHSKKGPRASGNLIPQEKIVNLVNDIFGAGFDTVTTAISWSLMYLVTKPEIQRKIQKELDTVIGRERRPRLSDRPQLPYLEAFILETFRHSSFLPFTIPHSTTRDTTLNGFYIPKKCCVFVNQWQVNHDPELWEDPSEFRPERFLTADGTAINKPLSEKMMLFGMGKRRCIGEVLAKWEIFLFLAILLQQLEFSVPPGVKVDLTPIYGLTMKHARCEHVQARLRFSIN

[2] = target: T2, Corticotropin-releasing factor receptor 2/Corticotropin-releasing factor-binding protein (Homo sapiens, UniProt P24387+Q13324); assay: Dose Response confirmation of uHTS hits for small molecule antagonists of the CRF-binding protein and CRF-R2 receptor complex.; assay type: functional; details: read-out: IC50_Mean
T2 sequence (Q13324 whole entry): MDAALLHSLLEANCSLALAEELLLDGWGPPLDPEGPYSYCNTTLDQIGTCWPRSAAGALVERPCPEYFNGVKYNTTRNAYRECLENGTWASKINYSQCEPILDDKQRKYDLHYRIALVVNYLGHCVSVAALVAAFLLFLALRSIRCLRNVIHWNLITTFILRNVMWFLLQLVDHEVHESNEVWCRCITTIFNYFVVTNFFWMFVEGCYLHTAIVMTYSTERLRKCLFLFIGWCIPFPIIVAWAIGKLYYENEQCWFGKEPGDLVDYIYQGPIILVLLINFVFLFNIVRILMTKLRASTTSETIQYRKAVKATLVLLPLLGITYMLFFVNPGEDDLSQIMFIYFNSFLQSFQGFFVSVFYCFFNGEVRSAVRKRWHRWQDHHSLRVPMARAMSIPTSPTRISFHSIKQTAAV
T2 sequence (P24387 whole entry): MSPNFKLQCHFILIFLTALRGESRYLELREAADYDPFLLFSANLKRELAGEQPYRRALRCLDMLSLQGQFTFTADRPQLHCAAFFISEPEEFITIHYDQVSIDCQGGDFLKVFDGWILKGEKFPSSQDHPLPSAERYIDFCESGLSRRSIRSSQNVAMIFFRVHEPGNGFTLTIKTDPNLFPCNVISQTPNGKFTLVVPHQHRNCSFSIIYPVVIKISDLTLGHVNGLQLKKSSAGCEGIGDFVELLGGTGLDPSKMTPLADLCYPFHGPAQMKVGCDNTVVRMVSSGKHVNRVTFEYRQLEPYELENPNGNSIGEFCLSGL

[3] = target: T2, Corticotropin-releasing factor receptor 2/Corticotropin-releasing factor-binding protein; assay: activators of CRF receptor 2 with binding protein – uHTS hits, confirmation (AID 602473); assay type: functional; details: read-out: EC50_Mean
[4] = NIH3T3 cell viability loss – ATP luminescence, mouse fibroblasts, counter-screen, dose response (AID 2010); assay type: functional, cell-based;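 also: cells exposed to compound for about 90 hours before reading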
[5] = fluconazole-exposed Candida albicans growth modulators – fluorescence, retest, confirmation (AID 2467); assay type: functional, cell-based
[6] = NIH-3T3 fibroblast cytotoxicity, dose response, cytotoxicity control, cell-based, fluorescence, Alamar Blue, secondary assay (AID 2327); assay type: functional;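 also: NIH-3T3 mouse fibroblasts cultured with fluconazole at 8 µg/mL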
[7] = Trypanosoma cruzi growth suppression in host cells – NIH3T3 host cells, beta-gal luminescence, confirmation (AID 2044); assay type: functional, cell-based;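 also: intracellular parasites grown in NIH/3T3 mouse fibroblasts as host cells; luminescent beta-galactosidase reporter signal from transgenic T. cruzi replicating inside host cells; inhibitors lower the luminescence signal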
[8] = target: Cytochrome P450 2C9 (Homo sapiens, UniProt P11712)
[9] = test system: H4; assay: Luminescence Cell-Based Dose Response HTS to Identify Activators of 5'UTR Stem-Loop Driven Prion Protein mRNA Translation in H4 Neuroglioblastoma Cells. [Related pubchem assays: 1829 (Project Summary), 1814 (Primary HTS)]; assay type: functional; details: Homo sapiens
[10] = target: T3, Rac GTPase-activating protein 1 (Homo sapiens, UniProt Q9H0H5); assay: blockers of MgcRacGAP-driven Rac1 GTP hydrolysis – biochemical, ADP Hunter fluorescence, primary and confirmatory, confirmation (AID 624330); assay type: functional
T3 sequence (Q9H0H5 whole entry): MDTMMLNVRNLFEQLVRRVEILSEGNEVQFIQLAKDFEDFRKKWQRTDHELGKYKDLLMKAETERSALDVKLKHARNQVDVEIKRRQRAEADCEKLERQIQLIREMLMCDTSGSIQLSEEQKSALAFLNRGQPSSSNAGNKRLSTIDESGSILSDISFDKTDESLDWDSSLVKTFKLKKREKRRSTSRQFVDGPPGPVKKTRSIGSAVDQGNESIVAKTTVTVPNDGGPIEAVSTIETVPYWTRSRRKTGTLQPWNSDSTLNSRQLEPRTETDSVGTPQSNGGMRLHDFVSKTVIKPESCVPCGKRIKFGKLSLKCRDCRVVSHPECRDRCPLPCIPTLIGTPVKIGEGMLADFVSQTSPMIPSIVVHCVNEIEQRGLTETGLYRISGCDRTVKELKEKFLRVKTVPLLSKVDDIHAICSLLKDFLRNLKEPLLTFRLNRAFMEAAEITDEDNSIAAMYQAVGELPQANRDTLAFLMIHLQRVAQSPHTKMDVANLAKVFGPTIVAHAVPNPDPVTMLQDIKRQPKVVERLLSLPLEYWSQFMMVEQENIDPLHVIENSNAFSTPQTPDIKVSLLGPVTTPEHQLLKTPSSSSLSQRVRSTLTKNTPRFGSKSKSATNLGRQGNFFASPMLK

[11] = Luminescence Cell-Based Dose Retest to Confirm Inhibitors of Cancer Stem Cells. [Related pubchem assays (depositor defined):AID2717, AID2721]; assay type: functional; details: Homo sapiens
[12] = test system: Streptococcus; assay: GAS UMAA2166 growth inhibition – luminescence, BacTiterGlo, counter-screen for streptokinase expression inhibitor project, dose response (AID 1915); assay type: functional, organism-based;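 also: potency for reduction of bacterial viability or growth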
[13] = test system: Streptococcus sp. 'group A'; assay: Streptococcus pyogenes SK(-)GAS viability under kanamycin – luminescence, BacTiterGlo, confirmation, counter-screen for streptokinase expression inhibitor project, dose response (AID 1900); assay type: functional, organism-based
[14] = test system: INS1; assay: INS-1E survival protection against cytokine death – cell-based, luminescence, retest, dose response (AID 449756); assay type: functional; details: Rattus norvegicus;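 also: cell death triggered by IL-1 beta plus TNF-alpha plus IFN-gamma mixture; protective hits raise ATP signal compared with cytokine alone wells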
[15] = P. falciparum Dd2 growth inhibitors, dose response, SYBR Green, cherry-picked samples (AID 1159567); assay type: functional, cell-based

Sequence of Cytochrome P450 2C9 (P11712 whole entry): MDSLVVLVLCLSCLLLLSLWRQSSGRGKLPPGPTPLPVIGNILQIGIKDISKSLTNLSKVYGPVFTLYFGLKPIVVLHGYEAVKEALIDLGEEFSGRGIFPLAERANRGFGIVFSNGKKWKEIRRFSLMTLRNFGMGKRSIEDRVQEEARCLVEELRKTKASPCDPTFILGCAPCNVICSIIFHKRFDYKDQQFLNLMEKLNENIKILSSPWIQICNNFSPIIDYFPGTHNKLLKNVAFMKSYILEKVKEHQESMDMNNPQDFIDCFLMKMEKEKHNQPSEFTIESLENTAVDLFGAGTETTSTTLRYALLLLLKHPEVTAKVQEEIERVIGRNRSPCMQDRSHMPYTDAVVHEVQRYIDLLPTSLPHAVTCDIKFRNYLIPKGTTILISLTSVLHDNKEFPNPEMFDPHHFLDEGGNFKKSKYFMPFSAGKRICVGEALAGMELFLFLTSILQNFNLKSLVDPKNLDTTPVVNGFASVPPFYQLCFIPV

For `CCCNC(=N)NCCC[C@H](N)C(=O)O`, the AC50 [1] was 31.6 µM (inconclusive).
In the case of `CCOc1ccc(C(CCc2ccccc2)NC(=O)c2ccccc2OC)cc1OCC` (stereo not given), the IC50 [2] is reported as > 47.1 µM (inactive) and the EC50 [3] is reported as > 53 µM (inactive).
For `O=C(NNC(=O)c1ccccc1C(=O)O)c1ccc(O)cc1`, the IC50 [2] was > 47.1 µM (inactive) and the EC50 [3] was > 53 µM (inactive).
In the case of `CS(=O)(=O)Oc1ccc(Br)c2cccnc12`, the IC50 [2] is reported as > 47.1 µM (inactive) and the EC50 [3] is reported as > 53 µM (inactive).
For `Cc1c(C(=O)O)sc(S(=O)(=O)N2CCN(C(=O)Cc3ccc(F)cc3)CC2)c1C(=O)O`, the IC50 [2] was > 47.1 µM (inactive) and the EC50 [3] was > 53 µM (inactive).
In the case of `c1ccc(COc2ccccc2CNC23CC4CC(CC(C4)C2)C3)cc1`, the EC50 [4] is reported as > 60 µM (not active), the EC50 [5] is reported as > 38 µM (not active) and the EC50 [6] is reported as > 160 µM (inactive). The EC50 [7] was 2.36 µM (active).
For `CCOC(=O)c1c(NC(=O)Cn2nc([N+](=O)[O-])c(Br)c2C)sc2c1CCC(C)C2` (stereo not given), the AC50 [8] was 3.55 µM (inconclusive) and the AC50 [1] was 2.82 µM (inconclusive).
In the case of `COc1ccc(C(=O)N2CCC3(CC2)CN(C(=O)Nc2ccccc2)C3)cc1`, the AC50 [1] is reported as 25.1 µM (inconclusive).
In the case of `COc1ccc(/C=C2\CCn3c2nc2ccccc2c3=O)cc1OC`, the EC50 [9] is reported as 1.08 µM (active).
For `O=C(C1CCN(S(=O)(=O)c2cccc3nsnc23)CC1)N1CCCc2ccccc21`, the AC50 [8] was 39.8 µM (inconclusive) and the AC50 [1] was 10 µM (inconclusive).
In the case of `Cc1ccc(S(=O)(=O)c2nc(S(C)(=O)=O)sc2N2CCOCC2)cc1`, the IC50 [2] is reported as > 47.1 µM (inactive) and the EC50 [3] is reported as > 53 µM (inactive).
With `O=C(CCCOc1ccc(Cl)cc1)Nc1cccc(C(=O)O)c1` the IC50 [2] was > 47.1 µM (inactive) and the EC50 [3] was > 53 µM (inactive).
With `COc1ccc(CN2CCN(Cc3ccccc3OC)CC2)cc1` the IC50 [10] was 74.7 µM (active).
With `Cc1noc(C)c1S(=O)(=O)N1CCC(C(=O)N2CCN(c3ccc(Cl)cc3)CC2)CC1` the IC50 [2] was > 47.1 µM (inactive) and the EC50 [3] was > 53 µM (inactive).
In the case of `c1cc2c(cc1CNc1ccc(N3CCOCC3)cc1)OCO2`, the IC50 [10] is reported as 6.57 µM (active).
In the case of `CCN(CC)c1ccc(N2C(=O)/C(=C/c3cccnc3)SC2=S)cc1`, the AC50 [1] is reported as 6.31 µM (inconclusive).
For `CCCc1ccc(C(=O)NNc2ccc(F)cc2)cc1`, the EC50 [5] was > 38 µM (not active), the EC50 [6] was 13 µM (inconclusive) and the AC50 [11] was 1.03 µM (active).
With `CN(C)c1ccc(/C=C2/C(=O)NC(=O)N(Cc3ccco3)C2=O)cc1` the IC50 [10] was 142 µM (active).
In the case of `O=C1N=C(N2CCOCC2)S/C1=C1\C(=O)N(Cc2ccccc2)c2ccccc21`, the EC50 [9] is reported as 45 µM (inconclusive).
For `O=C(O)C[C@@H](C(=O)O)c1ccccc1[N+](=O)[O-]`, the AC50 [1] was 0.794 µM (inconclusive).
With `CC(C)NC1=NN=C(c2ccc(Cl)c(Cl)c2)CS1` the EC50 [9] was 0.597 µM (active).
With `CC1CCCC(N2CCN(C(=O)c3ccc([N+](=O)[O-])cc3)CC2)C1` (stereo not given) the IC50 [10] was 167 µM (active).
With `COc1ccc(C(=O)N2CCC[C@@]3(CCN(c4cccc(-c5ccccc5)c4)C3)C2)cc1` the AC50 [1] was 12.6 µM (inconclusive).
For `COc1ccc(C#Cc2c(-c3ccccc3)n(-c3ccccc3)c3ccc(CO)cc23)cc1`, the IC50 [2] was > 47.1 µM (inactive) and the EC50 [3] was > 53 µM (inactive).
In the case of `COc1ccc(NC(=O)CSc2nnc(C3CC3)n2N)cc1`, the AC50 [8] is reported as 28.2 µM (inconclusive) and the AC50 [1] is reported as 39.8 µM (inconclusive).
With `CCN1C(=O)CC2CCCC1C2` (stereo not given) the IC50 [2] was > 47.1 µM (inactive) and the EC50 [3] was > 53 µM (inactive).
With `CCN(CC)c1ccc(/C=N/NC(=O)OC)c(O)c1` the IC50 [10] was 66 µM (active).
In the case of `COc1cc(OC)c2cc(C(=O)N/N=C/c3ccccc3O)[nH]c2c1`, the EC50 [5] is reported as 1.47 µM (active), the EC50 [12] is reported as 7.68 µM (active) and the EC50 [6] is reported as 23.1 µM (active). For the same molecule, the EC50 [13] was 0.781 µM (active) and the AC50 [14] was 3.06 µM (active).
In the case of `COc1cc(C=C2CN(C)C(=O)C2=O)ccc1O`, the IC50 [10] is reported as 19.6 µM (active).
In the case of `O=C(N/N=C/c1ccc(O)c2ccccc12)c1cccnc1`, the IC50 [10] is reported as 127 µM (active).
For `CO[C@H]1CN(C)C(=O)c2cc(NC(=O)c3nc4ccccc4s3)ccc2OC[C@@H](C)NC[C@@H]1C`, the AC50 [15] was 7.49 µM (active).
For `COc1cccc(C#Cc2ccc([C@H]3[C@@H](C#N)N(C(=O)C4CCCC4)[C@@H]3CO)cc2)c1`, the AC50 [15] was 5.62 µM (active).
With `COc1cccc(-c2ccc3c(c2)[C@H]2[C@H](CCN2C(=O)C2CCCC2)[C@@H](CO)N3)c1` the AC50 [15] was 6.77 µM (active).
For `CCC(=O)N1CC2(C1)[C@@H](c1ccc(-c3cccc(OC)c3)cc1)[C@@H](CO)N2C(C)=O`, the AC50 [15] was 22.2 µM (active).
For `COc1ccc(S(=O)(=O)N(C)C[C@@H]2OCc3ccccc3-c3c(n(C)c4ccccc34)C(=O)N([C@H](C)CO)C[C@H]2C)cc1`, the AC50 [15] was 4.65 µM (active).
For `Cc1ccc(-c2ccc3c(c2)O[C@@H](CN(C)Cc2cccnc2)[C@@H](C)CN([C@@H](C)CO)S3(=O)=O)cc1`, the AC50 [15] was 5.62 µM (active).
With `Cc1ccc(-c2ccc([C@H]3[C@@H]4CN(S(=O)(=O)c5ccccc5)C[C@H]3N4)cc2)cc1` the AC50 [15] was 3.66 µM (active).
For `COc1cccc(NC(=O)Nc2ccc3c(c2)C(=O)N(C)C[C@@H](OC)[C@H](C)CN[C@@H](C)CO3)c1`, the AC50 [15] was 22.8 µM (active).
In the case of `CSc1ccc2c(c1)N(CCCN(C)C)c1ccccc1S2`, the AC50 [1] is reported as 1.26 µM (inconclusive).
